Values after ≈ are worked out from the molar mass of the structure shown. Where two headings read alike, the source gives them in different places.
Experiments:
[1] = system: human liver cancer HepG2 cells; conditions: Patent No. CN 104736157 A; cited from earlier work
[2] = for plasma drug concentrations above the LLOQ: topical gel 0.008-0.06 mg/cm^2, LLOQ 0.02 ng/mL
[3] = system: SCL-1 cells; conditions: 48 hrs
Method: (§1) The experimental procedures were as follows: The cells were subcultured in a complete medium containing 10% FBS in an incubator at 37 °C with 5% CO2 and saturated humidity. The cell density was adjusted to (3-5) × 10^4 cells/mL using a complete medium containing 10% FBS. The cell suspension was added to the wells of a 96-well culture plate at 100 µL/well, and the plate was incubated in an incubator at 37 °C with 5% CO2 and saturated humidity overnight (for about 16-24 hrs). Various dose groups of the test substance and a solvent control group were set. On the next day, the original culture medium was discarded. Subsequently, 20% FBS-containing complete medium was added at 100 µL/well, and the test substance or solvent in FBS-free medium was then added at 100 µL/well, resulting in a final FBS concentration of 10%. […]
(§2) After incubation for 48 hrs under the experimental conditions, the supernatant was discarded, and 110 µL of CCK-8 working solution (100 µL of 10% FBS-containing complete medium and 10 µL of CCK-8 solution) were added to each well. The cells were further incubated for 4 hrs, and the optical density value at a wavelength of 450 nm (A450) was then measured for each well using a microplate reader. […]

[4] = system: A431 cells; conditions: 48 hrs
Method: as §1, §2

[5] = system: COLO-16 cells; conditions: drug substance 0.8 mg/kg; intragastric administration, once every other day; after 21 days of treatment
[6] = system: COLO-16 cells; test: cells; conditions: for IC50: test concentrations in ng/mL
Method: The experimental procedures were as follows: The cells were subcultured in a complete medium containing 10% FBS in an incubator at 37 °C with 5% CO2 and saturated humidity. The cell density was adjusted to (3-5) × 10^4 cells/mL using a complete medium containing 10% FBS. The cell suspension was added to the wells of a 96-well culture plate at 100 µL/well, and the plate was incubated in an incubator at 37 °C with 5% CO2 and saturated humidity overnight (for about 16-24 hrs). Various dose groups of the test substance and a solvent control group were set. On the next day, the original culture medium was discarded. Subsequently, 20% FBS-containing complete medium was added at 100 µL/well, and the test substance or solvent in FBS-free medium was then added at 100 µL/well, resulting in a final FBS concentration of 10%. Meanwhile, a negative control group was set: each well received 100 µL of 20% FBS-containing complete medium + 100 µL of incomplete medium containing cells, resulting in a final FBS concentration of 10%. A zero adjustment group (background) was also set: 200 µL of the culture medium alone (100 µL of 20% FBS-containing complete medium + 100 µL of incomplete medium), without drugs and cells. For each concentration group, four replicate wells were set.
After incubation for 48 hrs under the experimental conditions, the supernatant was discarded, and 110 µL of CCK-8 working solution (100 µL of 10% FBS-containing complete medium and 10 µL of CCK-8 solution) were added to each well. The cells were further incubated for 4 hrs, and the optical density value at a wavelength of 450 nm (A450) was then measured for each well using a microplate reader. The average value for the wells of each treatment group (T) was compared with the average value for the negative control wells (C). The percent inhibition rate of each concentration group was calculated using the following formula: [Inhibition rate = (1 - T/C) × 100%], and the half-maximal inhibitory concentration (IC50) was calculated.

[7] = system: TE.354.T cells (human cutaneous basal cell carcinoma); test: cells; conditions: 72 h, read-out: half-maximal inhibitory concentration
Method: The percent inhibition rate of each concentration group was calculated using the following formula: [Inhibition rate = (1 - T/C) × 100%], and the half-maximal inhibitory concentration (IC50) was calculated.

[8] = not given; remark: listed apart in the source
[9] = 20 °C

## CO[C@H]1[C@H](O)[C@H](O[C@H]2CC[C@@]3(C)[C@H](CC[C@@H]4[C@@H]3CC[C@]3(C)[C@@H](C5=CC(=O)OC5)CC[C@]43O)C2)O[C@@H](C)[C@@H]1O [17β-neriifolin]
[1]
  cell cycle arrest and apoptosis: induce cell cycle arrest and apoptosis
[2]; four Australian subjects
  plasma drug concentrations above the LLOQ: 0.021 to 0.101 ng/mL
[2]; seven Chinese subjects
  plasma drug concentrations above the LLOQ: 0.022 to 0.106 ng/mL
[2]; topical gel, 0.008-0.06 mg/cm^2 dose range
  dose dependence of systemic exposure: No dose-dependent increase
[3]
  growth inhibitory effects: strong growth inhibitory effects
[4]
  growth inhibitory effects: strong growth inhibitory effects
[5]
  tumor inhibition rate: greater than 80%
[6]; 2.5 ng/mL, 48 hrs
  Inhibition rate%: 6.9%
[6]; 25 ng/mL, 48 hrs
  Inhibition rate%: 72.7%
[6]; 50 ng/mL, 48 hrs
  Inhibition rate%: 77.9%
[6]; 100 ng/mL, 48 hrs
  Inhibition rate%: 89.5%
[6]; 48 hrs
  IC50: 12.28
[6]; Homo sapiens, 48 h, read-out: Inhibition rate%, 2.5 ng/mL
  inhibition at 0.0025 µg/mL: 9%
[6]; Homo sapiens, 48 h, read-out: Inhibition rate%, 25 ng/mL
  inhibition at 0.025 µg/mL: 57.3%
[6]; Homo sapiens, 48 h, read-out: Inhibition rate%, 50 ng/mL
  inhibition at 0.05 µg/mL: 74.5%
[6]; Homo sapiens, 48 h, read-out: Inhibition rate%, 100 ng/mL
  inhibition at 0.1 µg/mL: 85.3%
[6]; Homo sapiens, 48 h
  IC50: 0.0186 µg/mL (≈ 0.0348 µM)
[7]
  IC50: ~0.01 µg/mL (≈ 0.0187 µM)
10% ethanol
  Saturation solubility: 160 µg/mL
10% propylene glycol
  Saturation solubility: 80 µg/mL
20% ethanol
  Saturation solubility: 380 µg/mL
20% propylene glycol
  Saturation solubility: 100 µg/mL
30% ethanol
  Saturation solubility: 910 µg/mL
30% propylene glycol
  Saturation solubility: 420 µg/mL
40% ethanol
  Saturation solubility: 2170 µg/mL
40% propylene glycol
  Saturation solubility: 750 µg/mL
[8]
  solubility: ~70 µg/mL (≈ 131 µM)
[9]; Ethanol concentration 20%, sample concentration 8 mg/g
  Dissolution behavior: Dissolved
[9]; Ethanol concentration 45%, sample concentration 20 mg/g
  Dissolution behavior: Dissolved
[9]; Ethanol concentration 50%, sample concentration 24 mg/g
  Dissolution behavior: Dissolved
[9]; Ethanol concentration 66%, sample concentration 32 mg/g
  Dissolution behavior: Dissolved
[9]; Ethanol concentration 75%, sample concentration 40 mg/g
  Dissolution behavior: Dissolved
[9]; Ethanol concentration 100%, sample concentration 50 mg/g
  Dissolution behavior: Dissolved

— EP4792817A1, “COMPOUND AND METHOD FOR TREATING AND/OR […] CANCER OR PR[…] THEREOF” (EnKang Pharmaceuticals (Guangzhou), Ltd., priority 2023, dated 2025)
